Source: PubChem BioAssay (NCI)
“And” between values parts separate entries of the source, which are not always exact repeats. Equal values may be shown once.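 These data come from cells grown in 96-well plates and exposed to compound for 48 hours at five concentrations. GI50 is the concentration that inhibits growth by half. TGI marks complete inhibition of growth.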

Assays:
Test in all cases: NCI anticancer screen, dose series, 48 h
[1] = system: T-47D breast
[2] = system: K-562 leukemia
[3] = system: SN12C renal
[4] = system: RPMI-8226 leukemia
[5] = system: HOP-92 NSCLC
[6] = system: IGROV1 ovarian
[7] = system: SK-OV-3 ovarian
[8] = system: LOX IMVI melanoma
[9] = system: OVCAR-8 ovarian
[10] = system: SNB-19 CNS

Structure (SMILES)	GI50 [1]	TGI [1]	GI50 [2]	TGI [2]	GI50 [3]	TGI [3]	GI50 [4]	TGI [4]	GI50 [5]	TGI [5]	GI50 [6]	TGI [6]	GI50 [7]	TGI [7]	GI50 [8]	TGI [8]	GI50 [9]	TGI [9]	GI50 [10]	TGI [10]
N#C[Se]CCN1C(=O)c2ccccc2C1=O	3.45 µM	20.2 µM	2.35 µM	15.5 µM	2.69 µM	10.9 µM	3.35 µM	18.5 µM	1.37 µM	3.12 µM	2.02 µM	6.12 µM	3.46 µM	8.72 µM	1.8 µM	4.15 µM	2.66 µM	8.26 µM	2.41 µM	8.66 µM
O=S(=O)(O)C(c1ccccc1)C(O)c1ccccc1 (configuration not stated)	–	> 100 µM	–	> 100 µM	–	> 100 µM	–	> 100 µM	–	> 100 µM	–	> 100 µM	–	> 100 µM	–	> 100 µM	–	> 100 µM	–	> 100 µM
Oc1c(Br)cc(Cl)cc1C(c1cc(Cl)cc(Br)c1O)C(Cl)(Cl)Cl	2.84 µM	11.1 µM	0.832 µM	16.8 µM	2.1 µM	11.8 µM	0.961 µM	6.47 µM	0.457 µM	2.48 µM	3.95 µM	16.7 µM	2.94 µM	8.93 µM	2.97 µM	11.4 µM	2.86 µM	13 µM	3.13 µM	15.9 µM
CC(C)c1ccc2c(c1)CCC1C2CCCC1(C)NCc1ccccc1 (configuration not stated)	2.22 µM	4.63 µM	1.46 µM	10.9 µM	5.56 µM	19.2 µM	2.02 µM	4.98 µM	1.95 µM	4.13 µM	6.43 µM	20.7 µM	14.3 µM	27.6 µM	2.27 µM	7.12 µM	13.5 µM	28.9 µM	12.8 µM	26.4 µM
COc1ccccc1CNCCCN1C(=O)c2ccc3c4c(ccc(c24)C1=O)C(=O)N(CCCNCc1ccccc1OC)C3=O	0.188 µM	0.42 µM	0.265 µM	0.83 µM	0.151 µM	0.305 µM	0.274 µM	0.799 µM	0.243 µM	0.847 µM	0.148 µM	0.399 µM	0.352 µM	1 µM	0.135 µM	0.365 µM	0.137 µM	2.26 µM	0.159 µM	0.347 µM
CC(=O)O[C@H]1C[C@@H]2[C@@]3(C)CC[C@H]4C[C@@]4(C)[C@@H]3CC[C@@]2(C)C2=CCC3=C(COC3=O)[C@]21C	20.7 µM	54.7 µM	40.4 µM	> 100 µM	18.7 µM	38.3 µM	17.9 µM	50.2 µM	16.7 µM	35 µM	26.5 µM	78 µM	32.6 µM	> 100 µM	17.6 µM	36.5 µM	19.9 µM	65 µM	24.3 µM	69.7 µM
CNCc1cccc2c1OCCOCCOCCNS(=O)(=O)c1ccc(cc1)-c1cnc(N)c(n1)C(=O)N2	2.05 µM	5.46 µM	1.26 µM	5.46 µM	1.22 µM	3.79 µM	1.73 µM	4.26 µM	3.05 µM	14.7 µM	0.513 µM	3.89 µM	0.543 µM	8.01 µM	0.889 µM	2.27 µM	1.61 µM	10.4 µM	2.45 µM	9.9 µM
O=C(NO)c1ccc(CNc2cccc3nc(C4CC4)n(-c4ccccc4)c(=O)c23)cc1	2.08 µM	7.34 µM	2.89 µM	> 100 µM	2.4 µM	10.9 µM	2.69 µM	11.3 µM	1.99 µM	6.82 µM	1.44 µM	3.01 µM	2.15 µM	5.4 µM	–	–	1.65 µM	5.82 µM	2.61 µM	9.68 µM
COc1nc(N)nc2nc[nH]c12	> 779 µM	500 µM and > 1000 µM	> 800 µM	> 1000 µM	536 µM and 552 µM	500 µM and 800 µM and > 1000 µM	677 µM	500 µM and > 1000 µM	511 µM and 596 µM	480 µM and 800 µM and > 1000 µM	460 µM and 529 µM	454 µM and 800 µM and > 1000 µM	776 µM and 508 µM	212 µM and 800 µM and > 1000 µM	677 µM and 489 µM	500 µM and 800 µM and > 1000 µM	> 800 µM and 579 µM	> 800 µM	> 1000 µM	> 1000 µM
CCOC(=O)C#Cc1c(C(=O)OCC)nnn1[C@@H]1O[C@H](COC)[C@@H](OC)[C@H]1OC	2.47 µM	7.39 µM	1.85 µM	7.97 µM	3.81 µM	14.6 µM	4.16 µM	17.2 µM	2.8 µM	7.61 µM	18.4 µM	39.6 µM	67.5 µM	> 100 µM	1.16 µM	2.58 µM	6.94 µM	21.7 µM	69.4 µM	> 100 µM
COc1cc(/C=C/c2cc(/C=C/c3ccc(O)c(OC)c3)n(C(=O)Nc3ccc(C)cc3)n2)ccc1O	1.14 µM	3.33 µM	0.359 µM	–	0.408 µM	> 29.9 µM	0.261 µM	1.34 µM	0.682 µM	4.18 µM	0.667 µM	3.94 µM	0.451 µM	1.79 µM	0.501 µM	2.62 µM	0.465 µM	2.59 µM	0.873 µM	9.11 µM
O=c1c(Oc2ccc(F)cc2F)cc2cnc(NC3CCOCC3)nc2n1C1CC1	19.3 µM	> 25 µM	> 25 µM	> 25 µM	> 25 µM	> 25 µM	> 25 µM	> 25 µM	0.172 µM	10.6 µM	> 25 µM	> 25 µM	> 25 µM	> 25 µM	> 25 µM	> 25 µM	> 25 µM	> 25 µM	> 25 µM	> 25 µM
